In PubChem BioAssay AID248 (DTP/NCI, 2004):
Several values for one entry are separate records, joined by “and”; a condition that tells them apart may be missing. Identical values can stand only once. Toxic doses and inconclusive results are not listed.

Tested on: L1210 leukemia ip in BDF1 mice, survival T/C
Assay: NCI In Vivo Anticancer Drug Screen. Data for tumor model L1210 Leukemia (intraperitoneal) in B6D2F1 (BDF1) mice
Conditions: endpoint: mean survival time, higher = longer survival
How it was run: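 In this screen, tumor-bearing mice given compound are compared to those given vehicle, and their survival values are reported as a treated-to-control quotient.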

[N-]=[N+]=CC(=O)NCC(=O)NN
T/C (dose: 50.0 mg/kg/injection, schedule: Q01DX Z (sc), vehicle: steriod suspending solution): 101 % of control | T/C (dose: 50.0 mg/kg/injection, schedule: Q02DX Z (ip), vehicle: saline): 102 % of control | T/C (dose: 50.0 mg/kg/injection, schedule: Q03DX Z (ip), vehicle: saline): 101 % of control | T/C (dose: 100.0 mg/kg/injection, schedule: Q01DX001 (ip), vehicle: saline): 108 % of control | T/C (dose: 100.0 mg/kg/injection, schedule: Q01DX005 (ip), vehicle: other): 114 % of control | T/C (dose: 100.0 mg/kg/injection, schedule: Q01DX009 (ip), vehicle: other): 115 % of control | T/C (dose: 100.0 mg/kg/injection, schedule: Q01DX009 (ip), vehicle: saline): 119 % of control | T/C (dose: 100.0 mg/kg/injection, schedule: Q01DX Z (sc), vehicle: steriod suspending solution): 101 % of control | T/C (dose: 100.0 mg/kg/injection, schedule: Q02DX Z (ip), vehicle: saline): 108 % of control | T/C (dose: 100.0 mg/kg/injection, schedule: Q03DX Z (ip), vehicle: saline): 108 % of control | T/C (dose: 100.0 mg/kg/injection, schedule: Q## X008 (ip), vehicle: water): 98 % of control | T/C (dose: 125.0 mg/kg/injection, schedule: Q01DX006 (iv), vehicle: saline): 98 % of control | T/C (dose: 125.0 mg/kg/injection, schedule: Q01DX009 (ip), vehicle: other): 118 % of control | T/C (dose: 125.0 mg/kg/injection, schedule: Q01DX009 (sc), vehicle: other): 100 % of control | T/C (dose: 125.0 mg/kg/injection, schedule: Q01DX017 (ip), vehicle: saline): 121 % of control | T/C (dose: 125.0 mg/kg/injection, schedule: Q01DX Z (ip), vehicle: other): 116 % of control | T/C (dose: 200.0 mg/kg/injection, schedule: Q01DX001 (ip), vehicle: saline): 110 % of control | T/C (dose: 200.0 mg/kg/injection, schedule: Q01DX Z (ip), vehicle: water): 124 % of control | T/C (dose: 200.0 mg/kg/injection, schedule: Q01DX Z (sc), vehicle: steriod suspending solution): 98 % of control | T/C (dose: 200.0 mg/kg/injection, schedule: Q03DX Z (ip), vehicle: saline): 154 % of control | T/C (dose: 200.0 mg/kg/injection, schedule: Q## X008 (ip), vehicle: water): 98 % of control | T/C (dose: 225.0 mg/kg/injection, schedule: Q01DX Z (ip), vehicle: saline): 124 % of control | T/C (dose: 225.0 mg/kg/injection, schedule: Q01DX Z (ip), vehicle: water): 121 % of control | T/C (dose: 250.0 mg/kg/injection, schedule: Q01DX006 (iv), vehicle: saline): 106 % of control | T/C (dose: 250.0 mg/kg/injection, schedule: Q01DX009 (ip), vehicle: other): 156 % of control | T/C (dose: 250.0 mg/kg/injection, schedule: Q01DX009 (sc), vehicle: other): 108 % of control | T/C (dose: 250.0 mg/kg/injection, schedule: Q01DX017 (ip), vehicle: saline): 124 % of control | T/C (dose: 250.0 mg/kg/injection, schedule: Q01DX Z (ip), vehicle: other): 123 % of control | T/C (dose: 250.0 mg/kg/injection, schedule: Q02DX005 (ip), vehicle: saline): 121 % of control | T/C (dose: 250.0 mg/kg/injection, schedule: Q04DX003 (ip), vehicle: saline): 110 % of control | T/C (dose: 250.0 mg/kg/injection, schedule: Q08DX002 (ip), vehicle: other): 112 % of control | T/C (dose: 250.0 mg/kg/injection, schedule: Q## X005 (ip), vehicle: saline): 111 % of control | T/C (dose: 300.0 mg/kg/injection, schedule: Q01DX009 (sc), vehicle: other): 118 % of control | T/C (dose: 375.0 mg/kg/injection, schedule: Q01DX Z (ip), vehicle: other): 160 % of control | T/C (dose: 400.0 mg/kg/injection, schedule: Q01DX001 (ip), vehicle: saline): 106 % of control | T/C (dose: 400.0 mg/kg/injection, schedule: Q01DX005 (ip), vehicle: other): 150 % of control | T/C (dose: 400.0 mg/kg/injection, schedule: Q01DX009 (ip), vehicle: saline): 156 % of control | T/C (dose: 400.0 mg/kg/injection, schedule: Q01DX Z (im), vehicle: other): 112 % of control | T/C (dose: 400.0 mg/kg/injection, schedule: Q01DX Z (ip), vehicle: other): 157 % of control | T/C (dose: 400.0 mg/kg/injection, schedule: Q01DX Z (oral), vehicle: other): 102 % of control | T/C (dose: 400.0 mg/kg/injection, schedule: Q01DX Z (oral), vehicle: saline): 116 % of control | T/C (dose: 400.0 mg/kg/injection, schedule: Q## X008 (ip), vehicle: water): 103 % of control | T/C (dose: 500.0 mg/kg/injection, schedule: Q01DX001 (ip), vehicle: saline): 111 % of control and 117 % of control | T/C (dose: 500.0 mg/kg/injection, schedule: Q01DX006 (iv), vehicle: saline): 110 % of control | T/C (dose: 500.0 mg/kg/injection, schedule: Q01DX009 (sc), vehicle: other): 118 % of control | T/C (dose: 500.0 mg/kg/injection, schedule: Q01DX Z (ip), vehicle: other): 118 % of control and 124 % of control | T/C (dose: 500.0 mg/kg/injection, schedule: Q01DX Z (ip), vehicle: water): 90 % of control | T/C (dose: 500.0 mg/kg/injection, schedule: Q## X005 (ip), vehicle: saline): 114 % of control | T/C (dose: 500.0 mg/kg/injection, schedule: Q## X024 (ip), vehicle: water): 112 % of control | T/C (dose: 600.0 mg/kg/injection, schedule: Q01DX009 (ip), vehicle: saline): 117 % of control | T/C (dose: 600.0 mg/kg/injection, schedule: Q01DX Z (im), vehicle: other): 120 % of control | T/C (dose: 600.0 mg/kg/injection, schedule: Q01DX Z (ip), vehicle: water): 150 % of control | T/C (dose: 600.0 mg/kg/injection, schedule: Q01DX Z (sc), vehicle: other): 115 % of control | T/C (dose: 600.0 mg/kg/injection, schedule: Q## X008 (ip), vehicle: water): 109 % of control | T/C (dose: 750.0 mg/kg/injection, schedule: Q01DX009 (sc), vehicle: other): 118 % of control | T/C (dose: 750.0 mg/kg/injection, schedule: Q01DX Z (ip), vehicle: other): 123 % of control | T/C (dose: 800.0 mg/kg/injection, schedule: Q01DX Z (im), vehicle: other): 101 % of control | T/C (dose: 800.0 mg/kg/injection, schedule: Q01DX Z (ip), vehicle: other): 124 % of control | T/C (dose: 800.0 mg/kg/injection, schedule: Q01DX Z (oral), vehicle: other): 117 % of control | T/C (dose: 800.0 mg/kg/injection, schedule: Q01DX Z (oral), vehicle: saline): 122 % of control | T/C (dose: 800.0 mg/kg/injection, schedule: Q01DX Z (sc), vehicle: other): 91 % of control | T/C (dose: 800.0 mg/kg/injection, schedule: Q02DX005 (ip), vehicle: saline): 183 % of control | T/C (dose: 800.0 mg/kg/injection, schedule: Q02DX Z (ip), vehicle: other): 182 % of control | T/C (dose: 800.0 mg/kg/injection, schedule: Q03DX Z (ip), vehicle: other): 150 % of control | T/C (dose: 1000.0 mg/kg/injection, schedule: Q01DX001 (ip), vehicle: saline): 115 % of control | T/C (dose: 1000.0 mg/kg/injection, schedule: Q01DX001 (sc), vehicle: other): 108 % of control | T/C (dose: 1000.0 mg/kg/injection, schedule: Q01DX006 (iv), vehicle: saline): 109 % of control | T/C (dose: 1000.0 mg/kg/injection, schedule: Q01DX Z (ip), vehicle: other): 100 % of control | T/C (dose: 1000.0 mg/kg/injection, schedule: Q02DX009 (ip), vehicle: saline): 119 % of control | T/C (dose: 1000.0 mg/kg/injection, schedule: Q04DX003 (ip), vehicle: other): 162 % of control | T/C (dose: 1000.0 mg/kg/injection, schedule: Q04DX003 (ip), vehicle: saline): 156 % of control | T/C (dose: 1000.0 mg/kg/injection, schedule: Q## X005 (ip), vehicle: saline): 158 % of control | T/C (dose: 1200.0 mg/kg/injection, schedule: Q02DX Z (ip), vehicle: other): 98 % of control | T/C (dose: 1200.0 mg/kg/injection, schedule: Q03DX Z (ip), vehicle: other): 156 % of control | T/C (dose: 1250.0 mg/kg/injection, schedule: Q03HX016 (ip), vehicle: saline): 105 % of control | T/C (dose: 1500.0 mg/kg/injection, schedule: Q01DX001 (ip), vehicle: other): 150 % of control | T/C (dose: 1500.0 mg/kg/injection, schedule: Q01DX001 (ip), vehicle: saline): 150 % of control | T/C (dose: 1500.0 mg/kg/injection, schedule: Q01DX001 (sc), vehicle: other): 107 % of control | T/C (dose: 1500.0 mg/kg/injection, schedule: Q03HX016 (ip), vehicle: saline): 96 % of control | T/C (dose: 1500.0 mg/kg/injection, schedule: Q04DX003 (ip), vehicle: saline): 180 % of control | T/C (dose: 1500.0 mg/kg/injection, schedule: Q08DX002 (ip), vehicle: saline): 164 % of control | T/C (dose: 1500.0 mg/kg/injection, schedule: Q## X024 (ip), vehicle: water): 154 % of control | T/C (dose: 1600.0 mg/kg/injection, schedule: Q01DX Z (ip), vehicle: other): 150 % of control | T/C (dose: 1750.0 mg/kg/injection, schedule: Q03HX016 (ip), vehicle: saline): 102 % of control | T/C (dose: 2000.0 mg/kg/injection, schedule: Q01DX001 (ip), vehicle: other): 168 % of control | T/C (dose: 2000.0 mg/kg/injection, schedule: Q01DX001 (sc), vehicle: other): 118 % of control | T/C (dose: 2000.0 mg/kg/injection, schedule: Q03HX016 (ip), vehicle: saline): 111 % of control | T/C (dose: 2000.0 mg/kg/injection, schedule: Q## X005 (ip), vehicle: saline): 104 % of control
